{"source": "patent US20100055217A1", "about": "“COSMETIC COMPOSITION COMPRISING A COMBINATION OF LIPOCHROMAN-6 AND AN EXTRACT OF LONGOZA, AND ITS USE” (LVMH RECHERCHE, priority 2008, published 2010)", "tested_on": "oxidized proteins of normal human keratinocytes (NHK)", "assay": "Level of oxidized proteins of epidermal cells (DNPH/anti-DNP immunostaining, confocal image analysis)", "assay_type": "cell-based", "details": "for Proportion of oxidized proteins/cell, KHN 0002: NHK donor KHN 0002; for Proportion of oxidized proteins/cell, KHN 0002 / Proportion of oxidized proteins/cell, KHN 9726: 48 h treatment; for Proportion of oxidized proteins/cell, KHN 9726: NHK donor KHN 9726; for DNP marking/no. of cells / DNP marking/surface area measured / Surface area of DNP marking: NHK; for DNP marking/no. of cells / DNP marking/surface area measured / Surface area of DNP marking / Proportion of oxidized proteins/cell, Average / Reduction %/control: 48 h; for Proportion of oxidized proteins/cell, Average / Reduction %/control: average of both NHK donors; for Reduction %/control: vs control excipient", "method": "Normal human keratinocytes (NHK) isolated from two samplings of humans skin from two different donors, and referred to hereinafter as KHN002 and KHN9726, are cultured in T75 flasks in complete KSFM medium (Invitrogen GIBCO) at 37° C. and 5% of CO2, and are seeded at 20 000 cells per well in 8-well Lab-Tek II culture systems (Nalge Nunc International).\nAfter 48 h of culture, the cells are treated with the treatment solutions (see below).\nA solution of Lipochroman-6 at 0.004% by weight per volume (w/v) is prepared (solution A).\nThis is done by dissolving 20 mg of lipochroman-6 powder (supplier: Lipotec) in 2 ml of ethanol (solution at 10 mg/ml). This solution is diluted (40 μl of the stock solution in 10 ml of KSFm medium) to give solution A.\nFurthermore, a solution of Longoza at 0.2% w/v in the KSFMc medium is prepared (solution B), from the 1% w/v solution prepared in accordance with step g) of Example 1. The 1% w/v Longoza extract solution is diluted ([…] of the 1% w/v solution in 6 ml of KSFm medium) to give said solution B.\nThe treatment solutions are prepared by diluting solutions A and B, prepared above, in the KSFMc medium to give the correct percentage of each of the actives of the combination (% expressed by weight per volume).\nEach treatment is carried out on 3 wells per cell type. • control: KSFMc • solvent control: ethanol 0.1% in KSFMc medium • lipochroman 0.001% • lipochroman 0.002% • lipochroman 0.001%+Longoza 0.05% • lipochroman 0.001%+Longoza 0.1% • lipochroman 0.002%+Longoza 0.05% • lipochroman 0.002%+Longoza 0.1%\nAfter 48 hours of treatment, the KSFM medium is drawn off.\nThe cells are rinsed with PBS (PBS Tablets, Invitrogen GIBCO), and then fixed on slides by means of formaline (Formalin Solution 10% Neutral Buffered, Sigma) for 10 minutes at ambient temperature. After rinsing with PBS, the culture chambers are filled with a 0.1% Triton solution (Triton X-100, Sigma) for 10 minutes and then rinsed with PBS.\nThe culture chambers are subsequently disassembled and the slides are immersed in a solution of 2,4-dinitrophenylhydrazine (300 mg of DNPH (Fluka) in an ethanol/sulphuric acid mixture (98.5 ml/1.5 ml)) for 30 minutes.\nThe DNPH reacts with the carbonyl groups of the oxidized proteins in accordance with the following reaction:\nThe slides are rinsed ten times with PBS. The cells are then covered with a solution of PBS/BSA at 1% (10 g/l) by weight at ambient temperature for 30 minutes.\nThe dinitrophenyl (DNP) groups bound to the oxidized proteins are recognized by a primary anti-DNP antibody.\nFor this purpose, in a first step, the slides are covered with a solution of primary antibody (monoclonal mouse anti-DNP antibody, Sigma), diluted at 1/500 th in a PBS/BSA 1% solution, and are incubated for 60 minutes at ambient temperature in an oven, then rinsed with a PBS-Tween0.1% (Tween20, Merck) solution.\nIn a second step, the cells are covered with a solution of secondary antibody (Alexafluor 546 Goat anti-mouse, Invitrogen) in a PBS/BSA 1% by weight solution, and are incubated in the absence of light for 60 minutes. The slides are subsequently rinsed with PBS-Tween and then with PBS.\nIn a third step, a few drops of aqueous mounting medium (Fluorescent Mounting Medium, DAKO, S 3023) are applied to the slides, which are subsequently stored at 4° C. in the dark.\nThe photographs are taken by confocal microscopy (Axioplan microscope, Zeiss, and Krypton-Argon Laser, BioRad) with the aid of the LaserSharp 2000 software (BioRad). For each condition, three photos are taken with the x40 lens, with the same acquisition parameters (gain, iris).\nThe excitation wavelength of the fluorochrome is 546 nm and the emission wavelength is 573 nm.\nIn practice, an exciting fluorescence at […] is applied by the confocal laser to the cells. The fluorochrome Alexafluor 546, which represents the oxidized proteins, emits fluorescence at 573 nm, which is recovered by a specific filter and can be observed. […]", "data": [{"smiles": "COc1cc2c(cc1O)CCC(C)(C)O2", "note": "[lipochroman-6]", "values": [{"measurement": "Proportion of oxidized proteins/cell, KHN 0002", "setting": "lipochroman-6 0.001% w/v", "result": 76.3}, {"measurement": "Proportion of oxidized proteins/cell, KHN 0002", "setting": "lipochroman-6 0.002% w/v", "result": 60.9}, {"measurement": "Proportion of oxidized proteins/cell, KHN 9726", "setting": "lipochroman-6 0.001% w/v", "result": 88}, {"measurement": "Proportion of oxidized proteins/cell, KHN 9726", "setting": "lipochroman-6 0.002% w/v", "result": 43}, {"measurement": "DNP marking/no. of cells", "setting": "Lipochroman 0.001%", "result": 82.1}, {"measurement": "DNP marking/surface area measured", "setting": "Lipochroman 0.001%", "result": 28.7, "unit": "%"}, {"measurement": "Surface area of DNP marking", "setting": "Lipochroman 0.001%", "result": 3776}, {"measurement": "DNP marking/no. of cells", "setting": "Lipochroman 0.002%", "result": 52.0}, {"measurement": "DNP marking/surface area measured", "setting": "Lipochroman 0.002%", "result": 18.4, "unit": "%"}, {"measurement": "Surface area of DNP marking", "setting": "Lipochroman 0.002%", "result": 2415}, {"measurement": "Proportion of oxidized proteins/cell, Average", "setting": "lipochroman-6 0.001% w/v", "result": 82.1}, {"measurement": "Reduction %/control", "setting": "lipochroman-6 0.001% w/v", "result": "−19.43", "unit": "%"}, {"measurement": "Proportion of oxidized proteins/cell, Average", "setting": "lipochroman-6 0.002% w/v", "result": 52}, {"measurement": "Reduction %/control", "setting": "lipochroman-6 0.002% w/v", "result": "−48.97", "unit": "%"}]}]}
